Results as given in publication PMC3973950, “Synthesis of 5-arylidine amino-1,3,4-thiadiazol-2-[(N-substituted benzyol)]sulphonamides endowed with potent antioxidants and anticancer activity induces growth inhibition in HEK293, BT474 and NCI-H226 cells” (Medicinal Chemistry Research, 2013).

Columns and labels:
Assay type in all cases: cell-based
[1] = tested on: NCI-H226 (lung cancer cell line); assay: In vitro cytotoxicity by MTT assay, NCI-H226; details: 72 h
Outline: (§1)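 Monolayers seeded at […] (about 10,000 per well) were treated after 24 h with the synthesized compounds and incubated three days. Viability was taken from MTT reduction, with formazan measured at 490 nm.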

[2] = tested on: root meristem cells of Allium cepa; assay: In vitro antimitotic activity and cytogenetic analysis, Allium cepa meristem root model; details: compounds 1 mg/mL, PC (EMS) 2 × 10^−2 M
Procedure: Small bulbs (1.5–2.0 cm in diameter) of the common onion, A. cepa (2n = 16), were purchased from vendor at a local market. Prior to initiating the test, the outer scales of the bulbs and the dry bottom plate were removed without destroying the root primordia. The roots of A. cepa were grown in distilled water in Erlenmeyer flasks (200 mL capacity) under laboratory conditions (dark 24 °C). For each synthesized compound sample, after reaching a length of 3 cm (±0.5 cm), a series of six bulbs were placed in distilled water (pH 7.3) for 48 h and then onion roots were treated with the synthesized compound at 1 mg/mL concentrations of each tested compound. The test tubes were kept in an incubator at 22 ± 1 °C, and the test samples were changed daily at the same time. Several of the newly formed root tips were then cut from each bulb and examined for any visible morphological abnormalities. The bulbs with satisfactory root lengths (2–2.5 cm) were used in the study, while those with exceptionally long or short roots were discarded (on average 2–3 bulbs). Therefore, individual sets of five bulbs were used for each extract sample.
Distilled water (pH 7.3) was used as a negative control, and EMS (2 × 10^−2 M) used as a positive control mutagen (Fiskesjo, [1993], [1997]). After 24 h of exposure, several root tips were removed from the bulbs, fixed in 3:1 (v/v) ethanol (90 %)/glacial acetic acid (45 %) and stored overnight at 4 °C. The next day, they were placed in 70 % (v/v) aqueous alcohol and refrigerated until used. Allium roots were softened by digesting with HCl and rinsed the roots in water. After removing the water from the third rinse, the roots were covered with the orcein acetate stain. The roots were incubated in the stain for 12 min. During this time, the very tip of the root begins to turn red as the DNA stains the numerous small actively dividing cells at the tip. A root was transferred to the centre of a clean microscope slide, and a drop of water was added. Using a razor blade most of the unstained part of the root was cut off and discarded. The root tip was covered with a cover slip and then carefully pushed down on the cover slide with the wooden end of a dissecting probe. […] The root tip should spread out to a diameter about 0.5–1 cm. Five slides were prepared per bulb.
The following parameters were used for the determination of cytotoxicity and genotoxicity: • (i) the mitotic index (MI) was calculated as the ratio between the number of mitotic cells and the total number of cells scored and expressed as percentage using following formula as per standard procedures. Mitoticindex=Numberofdividingcells/Totalnumberofcells×100 • (ii) Chromatin aberrations (stickiness, breaks and polar deviation) were used as end points for the determination of cytogenetic effects, and micronuclei (MNC) were scored in interphase cells per 1,000 cells (‰ MNC) (Freshney, [2000]). • (iii) The most frequent abnormalities are shown in microphotographs. After 72 h of exposure to the test samples, the root lengths were measured and used as an index of general toxicity. The results for mitotic index and root length are expressed as percentage of the negative and positive controls. Visible morphological modifications, such as changes in root consistency and colour as well as the presence of swelling (c-tumours), hooks or twists in the roots, were also observed.

[3] = tested on: HEK 293 (human epidermal kidney cell line); assay: In vitro cytotoxicity by MTT assay, HEK 293; details: 72 h
Outline: as §1

[4] = tested on: BT474 (breast cancer cell line); assay: In vitro cytotoxicity by MTT assay, BT474; details: 72 h
Outline: as §1

N-({5-[(3-Nitrobenzylidene)amino]-1,3,4-thiadiazol-2-yl}sulfonyl)benzamide [Compound 9i]
% Cytotoxicity (100 − % cell survival) of NCI-H226 cell line ([1]; 0.005 μM): 33.61%
% Cytotoxicity (100 − % cell survival) of NCI-H226 cell line ([1]; 0.015 μM): 33.92%
% Cytotoxicity (100 − % cell survival) of NCI-H226 cell line ([1]; 0.045 μM): 33.97%
% Cytotoxicity (100 − % cell survival) of NCI-H226 cell line ([1]; 0.13 μM): 34.14%
% Cytotoxicity (100 − % cell survival) of NCI-H226 cell line ([1]; 0.41 μM): 34.59%
% Cytotoxicity (100 − % cell survival) of NCI-H226 cell line ([1]; 1.23 μM): 34.95%
% Cytotoxicity (100 − % cell survival) of NCI-H226 cell line ([1]; 3.7 μM): 35.27%
% Cytotoxicity (100 − % cell survival) of NCI-H226 cell line ([1]; 11.11 μM): 36.72%
% Cytotoxicity (100 − % cell survival) of NCI-H226 cell line ([1]; 33.33 μM): 38.57%
% Cytotoxicity (100 − % cell survival) of NCI-H226 cell line ([1]; 100 μM): 38.66%
Aberrant cells (%) ± SEM [2]: 22.41 ± 6.18%
Chromosome breaks (%) ± SEM [2]: 7.33 ± 2.06%
MNC (‰) ± SEM (micronuclei per 1,000 cells) [2]: 0.61 ± 0.15 ‰
Polar deviations (%) ± SEM [2]: 6.57 ± 1.33%
Stickiness (%) ± SEM [2]: 7.35 ± 2.06%
MI (%) ± SEM (mitotic index) ([2]; lower MI = higher activity, negative control 6.22): 3.07 ± 0.22%
% cytotoxicity (100 − % cell survival) of HEK 293 cell line ([3]; 0.005 μM): 33.04%
% cytotoxicity (100 − % cell survival) of HEK 293 cell line ([3]; 0.015 μM): 34.46%
% cytotoxicity (100 − % cell survival) of HEK 293 cell line ([3]; 0.045 μM): 35.12%
% cytotoxicity (100 − % cell survival) of HEK 293 cell line ([3]; 0.13 μM): 36.32%
% cytotoxicity (100 − % cell survival) of HEK 293 cell line ([3]; 0.41 μM): 36.69%
% cytotoxicity (100 − % cell survival) of HEK 293 cell line ([3]; 1.23 μM): 37.03%
% cytotoxicity (100 − % cell survival) of HEK 293 cell line ([3]; 3.7 μM): 37.19%
% cytotoxicity (100 − % cell survival) of HEK 293 cell line ([3]; 11.11 μM): 38.84%
% cytotoxicity (100 − % cell survival) of HEK 293 cell line ([3]; 33.33 μM): 39.51%
% cytotoxicity (100 − % cell survival) of HEK 293 cell line ([3]; 100 μM): 43.48%
% cytotoxicity (100 − % cell survival) of BT474 cell line ([4]; 0.005 μM): 31.52%
% cytotoxicity (100 − % cell survival) of BT474 cell line ([4]; 0.015 μM): 33.31%
% cytotoxicity (100 − % cell survival) of BT474 cell line ([4]; 0.045 μM): 34.59%
% cytotoxicity (100 − % cell survival) of BT474 cell line ([4]; 0.13 μM): 35.42%
% cytotoxicity (100 − % cell survival) of BT474 cell line ([4]; 0.41 μM): 36.12%
% cytotoxicity (100 − % cell survival) of BT474 cell line ([4]; 1.23 μM): 36.73%
% cytotoxicity (100 − % cell survival) of BT474 cell line ([4]; 3.7 μM): 37.56%
% cytotoxicity (100 − % cell survival) of BT474 cell line ([4]; 11.11 μM): 39.19%
% cytotoxicity (100 − % cell survival) of BT474 cell line ([4]; 33.33 μM): 40.50%
% cytotoxicity (100 − % cell survival) of BT474 cell line ([4]; 100 μM): 41.29%
